Where two headings read alike, the source gives them in different places.
Columns and labels:
rat testicular extracts = test: Inhibition of end joining of rat testicular extracts (NHEJ); format: biochemical; conditions: 500 μM; rat testicular extract
Experimental: The compounds of the present invention were tested for their effects on inhibition of DNA end joining reactions using rat tissue extracts and purified DNA Ligase IV/XRCC4. Rat testicular extracts were prepared from testes of 4-6 week old male Wistar rats, Rattus norvegicus using ammonium sulphate precipitation method. To determine end joining of cell-free extracts, radiolabeled double-stranded (ds) oligomeric DNA substrate was incubated with rat testicular extract at 25° C. in suitable NHEJ buffer. Extracts were incubated for 30 min with the compounds of Formula I (01-41, 500 μM) as prepared in Example 1, and then radioactive DNA substrate was added to the reaction mixture and incubated for 1 h at 25° C. Reactions were stopped using EDTA, and products were purified using phenol: chloroform extraction and loaded on denaturing polyacrylamide gel. […] Joining efficiency was calculated using the intensity of product bands (150 bp or higher) in individual lanes in Multi Gauge software as compared to control (lanes 2,3). Lane 1 denotes radioactive substrate in absence of protein or inhibitor, while M denotes radiolabeled 50 bp DNA ladder.
(§1) Effects of these compounds on NHEJ and Ligase IV mediated joining were evaluated (FIG. 4A-K). The reactions were terminated by EDTA (10 mM), products were purified using phenol/chloroform, precipitated with chilled ethanol and glycogen, and resolved on 8% denaturing PAGE. The gel was dried, exposed, and signal was detected using phosphor Imager FLA9000 (Fuji, Japan), and quantified in MultiGauge software expressed as Photo Stimulated Luminescence Units (PSLU). Inhibition of end joining was reported at 200 μM and 100 μM, respectively for SCR116 and SCR132 (FIGS. 4A, B, C and D), with >50% inhibition at 200 and 100 μM concentrations, respectively. […] FIG. 4K depict the purification profile of Ligase IV and XRCC4. Further FIGS. 4L-M represent inhibition of end joining catalysed by (FIG. 4L) purified Ligase III/XRCCI in presence of SCR116 and SCR132 (50, 100, 200, 500, 1000 μM) and (FIG. 4M) by purified Ligase I in presence of increasing concentrations of SCR116 and SCR132 (10, 50, 100, 200, 500, 1000 μM).

Nalm6 = test: Cytotoxicity (viable cells) in Nalm6; format: cell-based; conditions: read-out: IC50 in cancer cell lines, Nalm6
Experimental: (§2) The compounds of the present invention were screened initially in leukemic and cervical cancer cell lines (Table 1). […] In cervical cancer cell line HeLa, IC50 was 5 and 2 μM, respectively for SCR116 and SCR132 (FIG. 5A-B).
(§3) Ligase IV specificity of the compounds of the present invention inside the cells were also determined using Ligase IV knock out (KO) cell line N114 compared to the wild type Nalm6 (Table 2, FIGS. 5C, D, E and F). […] Table 1 showing IC50 of SCR7 derivatives in cancer cell lines Nalm6 and HeLa. IC50 was calculated using GraphPad Prism software from the percentage of viable cells following treatment with the compounds at 48 h. Table 2 showing IC50 of SCR116 and SCR132 in a panel of 16 cancer cell lines.

DNA Ligase IV/XRCC4 [1] = target: T1, DNA Ligase IV/XRCC4 (Homo sapiens, UniProt P49917); test: Inhibition of end joining by purified DNA Ligase IV/XRCC4; format: biochemical; conditions: 200 μM; purified Ligase IV/XRCC4
T1 construct: made in house; host or cells: bacteria
Experimental: The compounds of Formula I were evaluated for their specific inhibition activity towards enzyme DNA Ligase IV. DNA Ligase IV/XRCC4 was purified from bacteria using Ni-NTA column (FIG. 2A), and used for evaluation of inhibition of end joining of the compounds (01-41) at 200 μM (FIGS. 2B, C and D). The compounds were incubated with purified Ligase IV/XRCC4 in suitable NHEJ buffer at 25° C. for 30 min, followed by addition of radiolabeled DNA, and further incubation for 1 h at 25° C. Products were purified using phenol: chloroform and run on denaturing PAGE.
as §1

HeLa = test: Cytotoxicity (viable cells) in HeLa; format: cell-based; conditions: read-out: IC50 in cancer cell lines, HeLa
Experimental: as §2, §3

[2] = tested on: Ligase IV knock out (KO) cell line N114; conditions: Vartak et al. 2018, cited from earlier work
Reh = test: Cytotoxicity in Reh; format: cell-based; conditions: Table 2; 48 h; read-out: IC50 in cancer cell lines, Reh
Experimental: as §2, §3

HCT116 = test: Cytotoxicity in HCT116; format: cell-based; conditions: Table 2; read-out: IC50 in cancer cell lines, HCT116
Experimental: as §3

Supt1 = test: Cytotoxicity in Supt1; format: cell-based; conditions: Table 2; read-out: IC50 in cancer cell lines, Supt1
Experimental: as §3

Molt3 = test: Cytotoxicity in Molt3; format: cell-based; conditions: Table 2; read-out: IC50 in cancer cell lines, Molt3
Experimental: as §3

Molt4 = test: Cytotoxicity in Molt4; format: cell-based, human; conditions: Table 2; read-out: IC50 in cancer cell lines, Molt4
Experimental: as §3

[3] = tested on: Ligase IV knock out (KO) cell line N114; test: Cytotoxicity in Ligase IV knock out cell line N114; format: cell-based; conditions: Table 2, 48 h, read-out: IC50 in cancer cell lines, N114
Experimental: as §3

[4] = tested on: cancer cell lines, particularly leukemia; conditions: background statement; cited from earlier work
SUDHL8 = test: Cytotoxicity in SUDHL8; format: cell-based; conditions: Table 2; read-out: IC50 in cancer cell lines, SUDHL8
Experimental: as §3

MCF7 = test: Cytotoxicity in MCF7; format: cell-based; conditions: Table 2; read-out: IC50 in cancer cell lines, MCF7
Experimental: as §3

LN229 = test: Cytotoxicity in LN229; format: cell-based; conditions: Table 2; read-out: IC50 in cancer cell lines, LN229
Experimental: as §3

Raji = test: Cytotoxicity in Raji; format: cell-based; conditions: Table 2; read-out: IC50 in cancer cell lines, Raji
Experimental: as §3

CEM = test: Cytotoxicity in CEM; format: cell-based; conditions: Table 2; read-out: IC50 in cancer cell lines, CEM
Experimental: as §3

U118 = test: Cytotoxicity in U118; format: cell-based; conditions: Table 2; read-out: IC50 in cancer cell lines, U118
Experimental: as §3

[5] = Bioavailability in mice serum by HPLC; conditions: intraperitoneal, 20 mg/kg body weight
Experimental: The bioavailability of the compounds of the present disclosure were analysed in mice serum at different time points (0.5, 1, 2, 4, 6, 8, 10, 12, 24 and 48 h) by HPLC at 232 nm wavelength (FIGS. 10N-P).

EAC = test: Cytotoxicity in EAC; format: cell-based, mice; conditions: Table 2; read-out: IC50 in cancer cell lines, EAC
Experimental: as §3

L1210 = test: Cytotoxicity in L1210; format: cell-based; conditions: Table 2; read-out: IC50 in cancer cell lines, L1210
Experimental: as §3

DNA Ligase IV/XRCC4 [6] = target: T1, DNA Ligase IV/XRCC4; conditions: 200 μM; background statement; cited from earlier work
[7] = Homo sapiens, NALM-6, Table 1, 48 h
[8] = Homo sapiens, HeLa, 48 h, Table 1, 48 h

T1 sequence (P49917 whole entry): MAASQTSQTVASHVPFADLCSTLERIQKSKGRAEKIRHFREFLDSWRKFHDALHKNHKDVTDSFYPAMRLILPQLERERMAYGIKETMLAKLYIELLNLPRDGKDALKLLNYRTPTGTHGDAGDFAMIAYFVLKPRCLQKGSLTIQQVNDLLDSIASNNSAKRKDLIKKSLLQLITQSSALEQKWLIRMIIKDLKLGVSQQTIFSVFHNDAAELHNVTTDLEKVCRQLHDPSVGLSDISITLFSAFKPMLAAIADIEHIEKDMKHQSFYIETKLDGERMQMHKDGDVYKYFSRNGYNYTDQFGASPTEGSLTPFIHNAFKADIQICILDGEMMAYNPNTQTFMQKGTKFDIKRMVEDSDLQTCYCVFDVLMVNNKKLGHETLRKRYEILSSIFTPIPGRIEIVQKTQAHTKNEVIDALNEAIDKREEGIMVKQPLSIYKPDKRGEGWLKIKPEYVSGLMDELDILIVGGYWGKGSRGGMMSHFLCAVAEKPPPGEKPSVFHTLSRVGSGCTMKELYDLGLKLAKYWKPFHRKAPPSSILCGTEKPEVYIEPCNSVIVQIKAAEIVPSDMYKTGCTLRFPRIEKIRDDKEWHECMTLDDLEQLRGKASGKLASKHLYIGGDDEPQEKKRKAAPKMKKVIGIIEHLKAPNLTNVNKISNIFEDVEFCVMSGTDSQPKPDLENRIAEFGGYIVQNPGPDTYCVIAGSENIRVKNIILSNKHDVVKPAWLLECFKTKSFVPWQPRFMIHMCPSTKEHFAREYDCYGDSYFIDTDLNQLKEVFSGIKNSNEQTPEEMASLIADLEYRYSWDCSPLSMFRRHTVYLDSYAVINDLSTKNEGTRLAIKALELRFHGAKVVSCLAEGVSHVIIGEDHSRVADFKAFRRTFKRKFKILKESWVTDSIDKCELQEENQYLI
T1 sequence (Q13426 whole entry partner): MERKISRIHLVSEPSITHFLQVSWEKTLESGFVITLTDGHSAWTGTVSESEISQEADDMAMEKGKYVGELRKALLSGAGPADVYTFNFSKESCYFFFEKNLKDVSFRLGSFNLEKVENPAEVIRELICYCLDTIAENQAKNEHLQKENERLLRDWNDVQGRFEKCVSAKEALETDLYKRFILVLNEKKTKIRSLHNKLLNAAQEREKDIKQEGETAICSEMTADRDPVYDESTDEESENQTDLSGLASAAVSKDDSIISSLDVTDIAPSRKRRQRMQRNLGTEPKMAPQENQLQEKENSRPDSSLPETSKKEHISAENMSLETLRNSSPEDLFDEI

## Nc1nc(S)nc(O)c1/N=C/c1ccc[nH]1 [Compound 12, (E)-5-(((1H-pyrrol-2-yl)methylene)amino)-6-amino-2-mercaptopyrimidin-4-ol]
Rat testicular extracts
  Inhibition of end joining (no joined product observed): showed inhibition of end joining
Nalm6; [7]
  IC50: 29.5 µM
DNA Ligase IV/XRCC4 [1]
  Inhibition of end joining compared with control: significant inhibition of end joining
HeLa; [8]
  IC50: 48.5 µM

## Nc1nc(S)nc(O)c1/N=C/c1ccnc(Cl)c1 [Compound 31, (E)-6-amino-5-(((2-chloropyridin-4-yl)methylene)amino)-2-mercaptopyrimidin-4-ol]
Rat testicular extracts
  Inhibition of end joining (no joined product observed): showed inhibition of end joining
Nalm6; [7]
  IC50: 4.04 µM
HeLa; [8]
  IC50: 6.95 µM

## Nc1nc(S)nc(O)c1/N=C/c1ccccc1O [Compound 06, (E)-6-amino-5-((2-hydroxybenzylidene)amino)-2-mercaptopyrimidin-4-ol]
Rat testicular extracts
  Inhibition of end joining (no joined product observed): showed inhibition of end joining
Nalm6; [7]
  IC50: 19.4 µM
HeLa; [8]
  IC50: 17.5 µM

## O=c1[nH]c(=S)[nH]c2nc(-c3ccccc3)c(-c3ccccc3)nc12 [SCR7-pyrazine]
[2]
  Effect in KO in absence of Ligase IV: nonspecific effects

## CC(=O)OCc1ccc(/C=N/c2c(N)nc(S)nc2O)o1 [Compound 15, (E)-(5-(((4-amino-6-hydroxy-2-mercaptopyrimidin-5-yl)imino)methyl)furan-2-yl)methylacetate]
Rat testicular extracts
  Inhibition of end joining (no joined product observed): showed inhibition of end joining
Nalm6; [7]
  IC50: 29.8 µM
DNA Ligase IV/XRCC4 [1]
  Inhibition of end joining compared with control: significant inhibition of end joining
HeLa; [8]
  IC50: 79.8 µM

## O=c1[nH]c(=S)[nH]c(N=Cc2ccccc2)c1N=Cc1ccccc1 [SCR7, reference compound]
Reh
  IC50: > 250 µM
HCT116
  IC50: 302 µM
Supt1
  IC50: 109 µM
Molt3
  IC50: 79.1 µM
Molt4
  IC50: 182 µM
[3]
  IC50: > 250 µM
[2]
  IC50: > 250 µM
[2]; vs Nalm6
  Fold increased IC50 in N114: 5 fold
[4]
  IC50: > 250 µM
SUDHL8
  IC50: 100 µM
Nalm6; Table 2
  IC50: 50 µM
MCF7
  IC50: 40 µM
LN229
  IC50: 59.9 µM
Raji
  IC50: > 250 µM
CEM
  IC50: > 200 µM
U118
  IC50: 151 µM
[5]
  t1/2: 1 h
HeLa; Table 2
  IC50: 44 µM
EAC
  IC50: 132 µM
L1210
  IC50: 370 µM
DNA Ligase IV/XRCC4 [6]
  Inhibition of DNA Ligase IV: 50%

## Nc1nc(S)nc(O)c1/N=C/c1cc(Br)ccc1O [Compound 40, (E)-6-amino-5-((5-bromo-2-hydroxybenzylidene)amino)-2-mercaptopyrimidin-4-ol]
Rat testicular extracts
  Inhibition of end joining (no joined product observed): showed inhibition of end joining
Nalm6; [7]
  IC50: 12.6 µM
HeLa; [8]
  IC50: 18.3 µM
